Laboratory results: patent US20240350450A1, “COMPOSITION COMPRISING a-KE[…] (a-KG) AND 5-HYDROXYMETHYL-2-FURFURAL (5-HMF) TO IMPROVE HEMOGLOBIN-MEDIATED OXYGEN SUPPLY” (CYL GmbH, priority 2021, published 2024)
“Also recorded” adds a separate entry of the source.

Key:
hemoglobin (Hb) = target: T1, hemoglobin (Hb) (Homo sapiens, UniProt P68871+P69905); experiment: in vitro high-throughput determination of oxygen dissociation curves (ODC) in whole blood samples; assay type: biochemical; details: for Hill coefficient (HC) / P50 / Hb oxygen binding affinity (Hb-O2 affinity): human whole blood, low, medium and high dosage, 37° C., 40 mmHg PCO2
T1 construct: Venous blood was collected from 20 healthy subjects (ten women, ten men) aged 18 to 40 years; from tissue; host or cells: human venous whole blood (erythrocytes) of healthy volunteers
T1 sequence (P69905 2-142 limits assumed): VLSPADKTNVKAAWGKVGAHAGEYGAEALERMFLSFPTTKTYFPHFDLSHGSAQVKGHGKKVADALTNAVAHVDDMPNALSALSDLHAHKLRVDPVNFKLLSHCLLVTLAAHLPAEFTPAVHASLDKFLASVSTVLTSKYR
T1 sequence (P68871 2-147 limits assumed): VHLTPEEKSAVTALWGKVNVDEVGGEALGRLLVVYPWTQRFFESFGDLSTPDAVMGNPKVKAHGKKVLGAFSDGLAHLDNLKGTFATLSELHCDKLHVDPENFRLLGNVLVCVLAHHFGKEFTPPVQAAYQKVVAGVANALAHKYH
Experimental: Venous blood was collected from 20 healthy subjects (ten women, ten men) aged 18 to 40 years. […] Immediately after blood collection, blood gas analysis was performed (ABL800 flex, radiometer) and samples were stored on ice and processed within eight hours.
The recommended maximum daily dose of 5-HMF of Sanopal® (Cyl, Austria) is 720 mg. Assuming its total distribution in the blood volume of a 70 kg person to be approximately 5000 ml (16), the low dose of 5-HMF was defined as 0.14 mg/ml ([…]).
To ensure stable conditions during the ODC measurement, the measurement setup was set up in an environmentally controlled, closed device (EC box). This box is temperature-controlled (37° C.) and contains the experimental setup consisting of a humidifier, a cover for the microplate reader, tubes and valves. A modified 96-well plate was used (a special coating process ensures a thin, yet adherent layer of red blood cells for optimal fluorescence measurement), which enabled a constant gas flow across all wells in a meandering gas flow channel. The measuring plate is integrated into a gas system consisting of gas bags, gas hoses, humidifiers, gas mixers and a peristaltic pump.
The blood samples were placed in the individual wells using a special stamping technique so that a film consisting of a few cell layers could form. Oxygen saturation was measured in each well using dual-wavelength spectroscopy and oxygen partial pressure was measured using the fluorescence lifetime of commercial oxygen sensors at the inlet and outlet ports of the measuring plate. An oxygen ramp of around 20% by volume to 0% by volume was formed, so that a dissociation curve can be measured. The measurements were carried out every minute in a conventional fluorescence plate reader, so that up to 92 samples of whole blood could be analyzed within ˜25 min.
For the ODC experiments, gas mixtures containing 40 mmHg PCO2 were used, and the temperature was kept constant at 37° C.
The statistical analysis was performed using IBM SPSS Statistics 25. The unpaired t-test was used to analyze baseline differences between substance compositions. ANOVA with repeated measures design was used to determine P50 and HC differences between the different dosages and substance compositions.
Post-hoc t-test (Bonferroni-corrected) and ANOVA with repeated measures design were used for each individual substance or a combination of two substances to identify the location and magnitude of changes. Linear regression analysis was used to determine the concentration dependence for each substance. P<0.05 was considered significant. Data are presented as mean±SD.

severe hypoxia = details: animal model of severe hypoxia; cited from earlier work
hypoxia = details: pigs exposed to hypoxia; cited from earlier work
HbO2 affinity = details: human subjects exposed to hypoxia, sickle cell anemia patients; cited from earlier work
[1] = 143 mg/kg 5-HMF, animal studies; cited from earlier work

SMILES | Hill coefficient (HC) (hemoglobin (Hb)) | P50 / Hb oxygen binding affinity (Hb-O2 affinity) (hemoglobin (Hb)) | hemodynamic stability and microvascular oxygenation (severe hypoxia) | arterial oxygen saturation (SO2) (hypoxia) | hypoxia-associated increase in pulmonary arterial pressure (hypoxia) | HbO2 affinity (HbO2 affinity) | adverse effects [1] | dose dependence of P50 (hemoglobin (Hb); linear regression over low, medium, high dose)
O=Cc1ccc(CO)o1 [5-HMF, 5-hydroxymethyl-2-furfural] | significantly changed | strong dose-dependent increase in Hb-O2 affinity; also recorded: significantly changed P50; also recorded: strong dose-dependent increase in HbO2 affinity; also recorded: significant reduction in the P50 | protect against hemodynamic instability and maintain microvascular oxygenation | improved arterial oxygen saturation | attenuation | increases in HbO2 affinity were detected | increase in serum gamma globulin levels and the relative spleen weight | 
O=C(O)CCC(=O)C(=O)O [α-KG, α-ketoglutaric acid] | altered | altered P50 |  |  |  |  |  | lowest effect
